The source of these data is US20120219568A1, “EPIDITHIODIOXO[…] USES THEREOF IN TREATING CANCER” (priority 2011, published 2012).

Usually IC50 stands for the concentration needed to halve the response being measured.

One experiment concerns SW620 tumor xenograft. Nature of the experiment: SW620 tumor xenograft growth in athymic mice. It counts as in vivo. On the procedure:
(§1) Athymic mice were subcutaneously inoculated with human hepatoma HepG2 and colon carcinoma SW620 cells, respectively. The tumor-bearing mice were randomized into experimental groups. The control mice were given saline. The treatment group was intravenously injected with verticillin A at the doses of 1 and 2 mg/kg body weight. Tumor size was measured in 2 diameter with micrometer caliper at the indicate times to permit calculation of tumor volume, V=(a×b^2)/2, where “a” is the length and “b” is the width in millimeters. At the end of the experiment, all the animals were sacrificed, The tumor inhibitory rates were calculated using the following formula: [(mean tumor volume of control nude mice−mean tumor volume of treated nude mice)/mean tumor volume of control nude mice]×100%.
The disclosed observations indicate that verticillin A can dramatically increase TRAIL-induced tumor cell apoptosis. To determine whether these in vitro observations can be extended to enhance TRAIL-mediated tumor suppression in vivo, SW620 cells were injected subcutaneously to athymic mice, verticillin A and TRAIL, either used as single agent or in combination, were then injected to the tumor-bearing mice. Tumor growth rate were measured in different time points. Verticillin A can inhibit tumor cell growth in vitro at high dose and sensitize tumor cells to TRAIL-induced apoptosis at a low dose. […] As expected, SW620 tumors are resistant to TRAIL (Voelkel-Johnson C, et al. Mol Cancer Ther 2005 4(9):1320-7).

Another experiment relates to Jurkat. Nature of the experiment: MTT growth inhibition, Jurkat. It counts as cell-based. The conditions noted are these: Homo sapiens, T Cell Leukemia, MTT assay. On the procedure:
(§2) For cell viability assay, cells were seeded in wells of 96-well plates for 2 days and then treated with different concentrations of mushroom extract fractions or purified verticillin A for 2 days. The cells were then incubated with MTT (3-(4,5-dimethylthiazol-2-yl)-2,5-diphenyltetrazolium bromide) using the MTT assay kit (ATCC, Manassas, Va.) according to the manufacturer's instructions.
(§3) To determine whether verticillin A inhibits other types of tumor cell growth, Mammary carcinoma (Bcap-37 and MCF-7), heptocarcinoma (HepG2), cervical (HeLa), liver (SMMC-7721), lung (SPC-A1) cancer cells and T cell leukemia (Jurkat) were cultured in the presence of different concentrations of verticillin A and examined for the efforts of verticillin A on the growth rate of these tumor cells in vitro.
A general note: Tetrazolium assays rely on reduction of a dye to a coloured formazan, in cell work by metabolically active cells.

Another experiment deals with BNIP3. The experiment can be described thus: BNIP3 expression level. It counts as cell-based, human. The conditions noted are these: SW620 and HepG2 cells. On the procedure:
Because verticillin A enhances tumor cell apoptosis through the mitochondrion-dependent pathway, the expression levels of apoptosis-related genes of the mitochondrion-mediated apoptosis pathway was analyzed.

The test system of the next experiment is Bcap-37. The experiment can be described thus: MTT growth inhibition, Bcap-37. The note with it: Homo sapiens, Bcap37, Mammary Carcinoma, MTT assay. It counts as cell-based. On the procedure:
as §2, §3

In the next experiment the test system is HepG2 tumor. Nature of the experiment: HepG2 tumor growth in athymic mice. It counts as in vivo. The note with it: intravenous injection. On the procedure:
To determine whether the growth inhibitory effect of verticillin A can be extended to in vivo tumor growth inhibition, HepG2 cells were injected subcutaneously to athymic mice. Tumor-bearing mice were then treated with verticillin A by intravenous injection.
as §1

The test system of another experiment is Hela. Nature of the experiment: MTT growth inhibition, Hela. It counts as cell-based. The note with it: Homo sapiens, Cervical Cancer, MTT assay. On the procedure:
as §2, §3

Experiment [1] deals with SW620 cells. The experiment can be described thus: Sensitization to FasL-induced apoptosis. It counts as cell-based, human. The conditions noted are these: SW620, verticillin A pre-treatment then recombinant FasL. On the procedure:
Because the Fas-mediated apoptosis and TRAIL-induced apoptosis share similar signaling pathways, it was next tested whether Verticillin A also sensitizes tumor cells to FasL-induced apoptosis. SW620 cells were treated with verticillin A, followed by treatment with recombinant FasL.

Experiment [2] has as its system SW620 cells. Nature of the experiment: Apoptosis and TRAIL sensitization of SW620 cells (PI/annexin V flow cytometry). It counts as cell-based, human. On the procedure:
(§4) Cells were seeded in wells of 96-well plates for 2 days and then treated with different concentrations of mushroom extract fractions or purified verticillin A for 2 days. The cells were stained with propidium iodide (PI) (Trevigen, Gaithersburg, Md.) or PI plus annexin V-Alex Fluor 647 (Biolegend, San Diego, Calif.) and analyzed by flow cytometry.
SW620 is a metastatic human colon carcinoma cell line that is resistant to TRAIL-induced apoptosis (Voelkel-Johnson C, et al. Mol Cancer Ther 2005 4(9):1320-7).

The subject of a further experiment is HepG2 cells. Nature of the experiment: DNA fragmentation assay. It counts as cell-based, human. The note with it: HepG2, agarose gel electrophoresis. On the procedure:
Tumor cells were lysed in lysis buffer (5 mM Tris-HCl, pH 8.0, 100 mM Ethylenediaminetetraacetic acid (EDTA), 1% (w/v) Sodium dodecyl sulfate (SDS), and proteinase K) at 45° C. for 2 h. RNA was removed by incubation with RNase A. Genomic DNA was extracted by phenol/chloroform/isoamyl alcohol (25:24:1) and precipitated with ethanol. The purified genomic DNA was then analyzed by electrophoresis in a 1.2% agarose gel.
The growth inhibitory effort of the purified verticillin A was examined on HepG2 cells. Tumor cells were cultured in the presence of different concentrations of verticillin A and analyzed for the growth by MTT assay 24 and 72 h later, respectively. […] To determine whether the growth inhibitory effect is due to increased tumor cell death, genomic DNA was isolated from the treated tumor cells and analyzed by agarose gel electrophoresis.

Experiment [3] relates to sarcoma (MC-WST-724), and mammary carcinoma (MCF-7). Nature of the experiment: TRAIL co-treatment apoptosis in other tumor cell types. The conditions noted are these: co-treatment with verticillin A and TRAIL. It counts as cell-based. On the procedure: as §4
The sensitization effects of verticillin A was examined in other types of tumor cells.

In the case of `CN1C(=O)[C@]23SS[C@]1(C)C(=O)N2C1Nc2ccccc2[C@@]1(C12c4ccccc4NC1N1C(=O)[C@@]4(C)SS[C@]1(C(=O)N4C)[C@H]2O)[C@@H]3O` (stereo partly drawn) [Verticillin A], the “tumor suppression activity, verticillin A alone” value with SW620 tumor xenograft (0.125 mg/kg body weight) is listed as “did not exhibit significant tumor suppression activity”. In addition, the “tumor xenograft growth, combination treatment” value in the experiment on SW620 tumor xenograft (low dose verticillin A (0.125 mg/kg) and TRAIL) was “significantly inhibited the tumor xenograft growth”. The “lowest dose enhancing the efficacy of TRAIL in suppressing human cancer growth” value with SW620 tumor xenograft (nude mice) is recorded as 0.125 mg/kg. In addition, the results for the IC50 with Jurkat, in the experiment on Bcap-37 and with Hela were 0.037 µM, 0.119 µM and 0.122 µM, respectively. The BNIP3 expression level entry in the experiment on BNIP3 was “increased BNIP3 expression level in a dose-dependent manner”. Besides, the “HepG2 tumor growth inhibition” value with HepG2 tumor (2 mg/kg body weight) is on record as “significantly inhibited HepG2 tumor growth”. In addition, the “HepG2 tumor growth inhibition, dose dependence” value in the experiment on HepG2 tumor (1 and 2 mg/kg body weight) is reported as “tumor growth inhibitory effects at a dose-dependent manner”. For the same molecule, the “sensitization to FasL-induced apoptosis” value in the experiment with SW620 cells [1] was “significantly increases tumor cells to FasL-induced apoptosis”. Moreover, the “sensitization to TRAIL-induced apoptosis” value with SW620 cells [2] (SW620, 10 nM verticillin A in combination with TRAIL) is “dramatically sensitized SW620 cells to TRAIL-induced apoptosis”. Besides, the “apoptosis induction, single agent” value in the experiment with SW620 cells [2] (SW620, agent alone) is reported as “induced significant apoptosis”. For the same molecule, the “concentration that overcomes TRAIL resistance” value in the experiment with SW620 cells [2] (human cancer cells) amounted to 10 nM. Moreover, the “genomic DNA fragmentation” value with HepG2 cells is “induces genomic DNA fragmentation”. In addition, the “apoptosis rate versus single agent alone” value in experiment [3] is recorded as “significantly increased the apoptosis rate”.
